{"source": "patent US12479866B2", "about": "“Boron-containing rho kinase inhibitors” (Percipiad, Inc., priority 2019, dated 2025)", "key": {"primary hTM cells [1]": {"tested_on": "primary hTM cells", "experiment": "RealTime-Glo MT cell viability assay in hTM cells", "assay_type": "cell-based", "details": "all concentrations and time points (24 h, 48 h, 72 h)", "excerpt": "(§1) Commercially available RealTime-Glo™ MT cell viability (Promega, catalog #G9712) and CellTox™ Green cytotoxicity (Promega, catalog #G8731) assays were used in assessing effect of compounds on primary hTM cell viability and cytotoxicity. The RealTime-Glo™ MT cell viability assay is a nonlytic, homogeneous, bioluminescent method that determines the number of viable cells in culture by measuring the reducing potential of cells and thus metabolism (MT). Viable cells reduce the proprietary pro-substrate to generate a substrate for NanoLuc® luciferase. This substrate diffuses from cells into the surrounding culture medium, where it is rapidly used by the NanoLuc® Enzyme to produce a luminescent signal. In a contrasting and complementary manner, CellTox™ Green cytotoxicity assay measures changes in membrane integrity that occur as a result of cell death. This assay system uses a proprietary asymmetric cyanine dye that is excluded from viable cells but preferentially stains the dead cells' DNA. The fluorescent signal produced by the dye binding to the dead-cell DNA is proportional to cytotoxicity.\nHuman™ cells were cultured and maintained as described in Example 12. Fifty μl cells (600 cells) in culture media containing compound, 25 μl media with RealTime-Glo™ MT cell viability assay reagent and 25 μl media with CellTox™ Green cytotoxicity assay reagent were plated in black, clear bottom 96-well plates. Light emitted by luciferase and fluorescence emitted by dye binding to DNA (excitation 485 nm and emission 525 nm) were measured at 24 h, 48 h, and 72 h after incubation using plate based luminescence and fluorescence plate readers."}, "primary hTM cells [2]": {"tested_on": "primary hTM cells", "experiment": "CellTox Green cytotoxicity assay in hTM cells", "assay_type": "cell-based", "details": "24 h, 48 h, 72 h", "excerpt": "as §1, with “The fluorescent signal produced by the dye binding to the dead-cell DNA is proportional to cytotoxicity.” left out\nHuman™ cells were cultured and maintained as described in Example 12. […] Light emitted by luciferase and fluorescence emitted by dye binding to DNA (excitation 485 nm and emission 525 nm) were measured at 24 h, 48 h, and 72 h after incubation using plate based luminescence and fluorescence plate readers."}, "[3]": {"tested_on": "New Zealand White rabbits", "experiment": "Sodium hyaluronate-induced acute ocular hypertension, IOP", "assay_type": "in vivo, rabbit", "excerpt": "In all studies, male New Zealand White rabbits were acclimatized for one week before the study. Animals were given food and water ad libitum. Body weights of rabbits ranged from 2 to 3 kg. Animals were trained for the IOP measurement procedure during the acclimation period in order to reduce stress and obtaining more accurate measurements during the study. IOP measurements were taken using the Icare® TONOVET Plus tonometer. […] IOP readings are obtained only when the tonometer is held an appropriate distance and in the correct plane relative to the ocular surface. Green light appears when the orientation is correct, thereby minimizing operator errors. Measurements were performed at the same time of day by the same person using the same instrument. Sodium hyaluronate-induced acute ocular hypertension study. Sodium hyaluronate injection into the anterior chamber of rabbit eye creates acute ocular hypertensive status. […] Another group of four animals with elevated IOP received saline only in right eyes. The left eyes of both groups were instilled topically with 30 μl saline eye drop."}, "[4]": {"experiment": "Solubility Assay #1, equilibrium solubility in pH 7.4 aqueous buffer", "details": "pH 7.4 phosphate buffer, thermodynamic from solid"}}, "data": [{"compound": "Cl.Cl.NCC(C(=O)Nc1ccc2cnccc2c1)c1ccc(B(O)O)cc1", "note": "(stereo not drawn) [Compound 10•2HCl]", "values": [{"measurement": "Effect on viability (in words)", "setting": "primary hTM cells [1]", "value": "no effect on viability or membrane integrity"}, {"measurement": "Cytotoxicity / membrane integrity (in words)", "setting": "primary hTM cells [2]", "value": "no effect on viability or membrane integrity"}, {"measurement": "Duration of IOP effect", "setting": "[3]; experiment 1, 1 mg/ml eye drop", "value": 6, "unit": "h"}, {"measurement": "Effect on IOP compared to saline only group", "setting": "[3]; experiment 1, 30 μl eye drop in saline (1 mg/ml, 2.34 mM) two hours after hyaluronate injection", "value": "decreased IOP significantly within 1 hour after application"}, {"measurement": "Effect on IOP", "setting": "[3]; experiment 2, compound 10.2HCl 1 mg/ml (2.34 mM), Netarsudil.2HCl 0.25 mg/ml (0.47 mM), 30 μL eye drop", "value": "reduced IOP significantly within 1 hour after eye drop application"}, {"measurement": "solubility", "setting": "[4]", "value": 39.1, "unit": "µM"}]}]}
